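Interpolation was linear, between the two tested concentrations surrounding the appropriate level; five concentrations were tested over 48 hours in 96-well plates. GI50 is the concentration that inhibits growth by half. TGI: total growth inhibition.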
What was measured:
Assay in all cases: NCI tumour cell line growth inhibition, 48 h
[1] = test system: EKVX NSCLC
[2] = test system: HCT-15 colon
[3] = test system: K-562 leukemia
[4] = test system: OVCAR-8 ovarian
[5] = test system: SF-539 CNS
[6] = test system: SK-MEL-28 melanoma
[7] = test system: SN12C renal
[8] = test system: U251 CNS
[9] = test system: NCI-H226 lung
[10] = test system: DMS 273 small cell lung
[11] = test system: HOP-18 NSCLC

| Compound | TGI [1] | TGI [2] | TGI [3] | TGI [4] | TGI [5] | TGI [6] | TGI [7] | TGI [8] | TGI [9] | TGI [10] | TGI [11] | GI50 [1] | GI50 [2] | GI50 [9] | GI50 [4] | GI50 [5] | GI50 [6] | GI50 [7] | GI50 [8] | GI50 [3] |
| --- | --- | --- | --- | --- | --- | --- | --- | --- | --- | --- | --- | --- | --- | --- | --- | --- | --- | --- | --- | --- |
| N#C/C=C1\C=CC(O)C(O)C1OC1OC(CO)C(O)C(O)C1O (stereo not drawn) | > 100 µM | > 100 µM | > 100 µM | > 100 µM | > 100 µM | > 100 µM | > 100 µM | > 100 µM |  |  |  |  |  |  |  |  |  |  |  |  |
| O=S(=O)(c1ccc(I)cc1)N(c1ccccc1)S(=O)(=O)C(F)(F)C(F)(F)C(F)(F)C(F)(F)F | > 100 µM | > 100 µM | > 100 µM | > 100 µM | > 100 µM | > 100 µM | > 100 µM | > 100 µM | 58 µM |  |  |  |  |  |  |  |  |  |  |  |
| O=S(=O)(O)c1c(N=Nc2c(O)ccc3ccccc23)ccc2ccccc12 | > 100 µM | > 100 µM | > 100 µM | > 100 µM |  | > 100 µM | > 100 µM | > 100 µM | > 100 µM |  |  |  |  |  |  |  |  |  |  |  |
| O=C(O)C1CC(c2ccccc2)=NN1c1ccccc1 (stereo not drawn) | 88.9 µM | > 100 µM | > 100 µM | > 100 µM | > 100 µM | > 100 µM | > 100 µM | > 100 µM | > 100 µM |  |  |  |  |  |  |  |  |  |  |  |
| COc1cccc(-c2nc3c(C(=O)NCCN(C)C)cccc3[nH]2)c1 | 97.5 µM | 41.6 µM | > 70.9 µM | > 58.4 µM | 41.4 µM | 31.4 µM | > 70.6 µM | > 61.6 µM | 35.7 µM | 39.7 µM | 62.6 µM |  |  |  |  |  |  |  |  |  |
| O=C1/C(=C\c2ccc(-c3ccc(Cl)cc3Cl)o2)SC2N=C(COc3ccc(Cl)cc3)NN12 (stereo not drawn) | 86.5 µM | > 100 µM | > 100 µM | > 100 µM | > 100 µM | > 100 µM | > 100 µM | 98.2 µM | > 100 µM |  |  |  |  |  |  |  |  |  |  |  |
| S=C1N(c2ccc(Cl)cc2)C2=C(N=Nc3ccccc3)C(=Nc3ccccc3S2)N1c1ccccn1 | 26.6 µM | 23 µM |  | 28.2 µM | 30.4 µM | 29.4 µM | 25 µM | 23.7 µM |  |  |  |  |  |  |  |  |  |  |  |  |
| [C-]#[O+].[C-]#[O+].[Ir].[O-]c1cccc2cccnc12 | > 100 µM | > 100 µM |  | > 100 µM | > 100 µM | > 100 µM | > 100 µM | > 100 µM | > 100 µM | > 100 µM | > 100 µM | > 100 µM | > 100 µM | > 100 µM | > 100 µM | > 100 µM | > 100 µM | > 100 µM | > 100 µM |  |
| O=S(O)c1cc(Cl)cc(Cl)c1O | > 100 µM |  | > 100 µM |  | > 100 µM | > 100 µM | > 100 µM | > 100 µM |  |  |  |  |  |  |  |  |  |  |  |  |
| COc1ccc(SC(C)(SC)c2ccccn2)c(OC)n1 (stereo not drawn) | > 100 µM | > 100 µM | > 100 µM | > 100 µM | > 100 µM | > 100 µM | > 100 µM | > 100 µM | > 100 µM |  |  |  |  |  |  |  |  |  |  |  |
| Oc1cc2cccc[n+]2c2cccc(Cl)c12 |  |  | 76 µM |  |  |  | 45.4 µM |  |  |  |  | 38.4 µM | 49.4 µM |  |  | 71.8 µM | 21.8 µM | 17.2 µM | 42 µM | 25.4 µM |

Source: PubChem BioAssay (NCI)
